PubChem BioAssay AID1919005 (Molecular Pharmacology Branch, DTP, NCI, 2023)
pIC50: −log10 of the molar value.

Test system: 855422-203-R-J1-PDC complex spheroid growth
Experiment: Anticancer human tumor 855422-203-R-J1-PDC patient-derived bladder carcinoma cell line growth inhibition [AhR]
Conditions: for viability, T/C: stronger effect = lower value; for pIC50: curve of first compound
Outline: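 Agents were dosed in half-log steps down from roughly clinical Cmax, or from 10 microM where Cmax was unknown, alone and with AhR antagonists. Read-out: percent test/control growth of tumor spheroids containing HUVEC and MSC stromal cells.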
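Note: spheroids exposed to agents for seven days before readout.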
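Throughout, for viability, T/C: percent of DMSO vehicle control luminescence viability.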

Q: Which viability, T/C (compound 0.1 µM) does the source give for `Cc1cncc(-c2nc(NCCc3c[nH]c4ccccc34)c3ncn(C(C)C)c3n2)c1` here?
A: 92.2% [middle of 19 runs]

Q: What about the viability, T/C (compound 1 µM) of the same compound?
A: 86.3% [middle of 20 runs]

Q: What about the IC50 (compound alone, run of 06/06/2022) of the same compound?
A: 5.43 µM [middle of 22 runs]

Q: How did the pIC50 (second compound 0.1 µM) turn out when `CC(C)c1c(-c2ccccc2)nc2c(C#N)c[nH]n2c1=O` + Cc1ccccc1N=Nc1ccc(NC(=O)c2ccnn2C)c(C)c1 was run?
A: < 5.00

Q: What about the pIC50 (second compound 0.316 µM) of the same compound?
A: < 5.00

Q: What about the pIC50 (second compound 1 µM) of the same compound?
A: < 5.00

Q: And the pIC50 (second compound 3.16 µM)?
A: < 5.00

Q: What about the pIC50 (second compound 10 µM) of the same compound?
A: < 5.00

Q: What about the viability, T/C (second compound 0.1 µM, first compound 0.0316 µM) of the same compound?
A: 98.4%

Q: What about the viability, T/C (second compound 0.1 µM, first compound 0.1 µM) of the same compound?
A: 105%

Q: What about the viability, T/C (second compound 0.1 µM, first compound 0.316 µM) of the same compound?
A: 94.5%

Q: And the viability, T/C (second compound 0.1 µM, first compound 1 µM)?
A: 92.9%

Q: And the viability, T/C (second compound 0.1 µM, first compound 3.16 µM)?
A: 89.5%

Q: And the viability, T/C (second compound 0.1 µM, first compound 10 µM)?
A: 89%

Q: And the viability, T/C (second compound 0.316 µM, first compound 0.0316 µM)?
A: 106%

Q: What about the viability, T/C (second compound 0.316 µM, first compound 0.1 µM) of the same compound?
A: 99%

Q: And the viability, T/C (second compound 0.316 µM, first compound 0.316 µM)?
A: 96.9%

Q: And the viability, T/C (second compound 0.316 µM, first compound 1 µM)?
A: 104%

Q: And the viability, T/C (second compound 0.316 µM, first compound 3.16 µM)?
A: 91.2%

Q: And the viability, T/C (second compound 0.316 µM, first compound 10 µM)?
A: 93%

Q: And the viability, T/C (second compound 1 µM, first compound 0.0316 µM)?
A: 95.8%

Q: And the viability, T/C (second compound 1 µM, first compound 0.1 µM)?
A: 103%

Q: And the viability, T/C (second compound 1 µM, first compound 0.316 µM)?
A: 96.5%

Q: What about the viability, T/C (second compound 1 µM, first compound 1 µM) of the same compound?
A: 101%

Q: What about the viability, T/C (second compound 1 µM, first compound 3.16 µM) of the same compound?
A: 91.4%

Q: And the viability, T/C (second compound 1 µM, first compound 10 µM)?
A: 90.5%

Q: And the viability, T/C (second compound 3.16 µM, first compound 0.0316 µM)?
A: 94.4%

Q: And the viability, T/C (second compound 3.16 µM, first compound 0.1 µM)?
A: 93.7%

Q: What about the viability, T/C (second compound 3.16 µM, first compound 0.316 µM) of the same compound?
A: 89.7%

Q: And the viability, T/C (second compound 3.16 µM, first compound 1 µM)?
A: 88.7%

Q: And the viability, T/C (second compound 3.16 µM, first compound 3.16 µM)?
A: 89.5%

Q: What about the viability, T/C (second compound 3.16 µM, first compound 10 µM) of the same compound?
A: 82.1%

Q: What about the viability, T/C (second compound 10 µM, first compound 0.0316 µM) of the same compound?
A: 81.8%

Q: What about the viability, T/C (second compound 10 µM, first compound 0.1 µM) of the same compound?
A: 83.6%

Q: And the viability, T/C (second compound 10 µM, first compound 0.316 µM)?
A: 76.9%

Q: And the viability, T/C (second compound 10 µM, first compound 1 µM)?
A: 86%

Q: What about the viability, T/C (second compound 10 µM, first compound 3.16 µM) of the same compound?
A: 76.5%

Q: And the viability, T/C (second compound 10 µM, first compound 10 µM)?
A: 73.6%

Q: With `O=C(C=Cn1cnc(-c2cc(C(F)(F)F)cc(C(F)(F)F)c2)n1)NNc1cnccn1` + Cc1cncc(-c2nc(NCCc3c[nH]c4ccccc34)c3ncn(C(C)C)c3n2)c1 as the compound, how does the pIC50 (second compound 0.1 µM) read?
A: 6.58

Q: What about the pIC50 (second compound 0.316 µM) of the same compound?
A: 6.61

Q: What about the pIC50 (second compound 1 µM) of the same compound?
A: 6.61

Q: And the pIC50 (second compound 3.16 µM)?
A: 6.70

Q: And the pIC50 (second compound 10 µM)?
A: > 8.02

Q: What about the viability, T/C (second compound 0.1 µM, first compound 0.00949 µM) of the same compound?
A: 101%

Q: What about the viability, T/C (second compound 0.1 µM, first compound 0.03 µM) of the same compound?
A: 102%

Q: What about the viability, T/C (second compound 0.1 µM, first compound 0.0949 µM) of the same compound?
A: 162%

Q: What about the viability, T/C (second compound 0.1 µM, first compound 0.3 µM) of the same compound?
A: 40.8%

Q: And the viability, T/C (second compound 0.1 µM, first compound 0.949 µM)?
A: 30.8%

Q: And the viability, T/C (second compound 0.1 µM, first compound 3 µM)?
A: 22.6%

Q: What about the viability, T/C (second compound 0.316 µM, first compound 0.00949 µM) of the same compound?
A: 108%

Q: What about the viability, T/C (second compound 0.316 µM, first compound 0.03 µM) of the same compound?
A: 116%

Q: What about the viability, T/C (second compound 0.316 µM, first compound 0.0949 µM) of the same compound?
A: 128%

Q: And the viability, T/C (second compound 0.316 µM, first compound 0.3 µM)?
A: 36.3%

Q: And the viability, T/C (second compound 0.316 µM, first compound 0.949 µM)?
A: 26.3%

Q: And the viability, T/C (second compound 0.316 µM, first compound 3 µM)?
A: 23.3%

Q: What about the viability, T/C (second compound 1 µM, first compound 0.00949 µM) of the same compound?
A: 95.3%

Q: And the viability, T/C (second compound 1 µM, first compound 0.03 µM)?
A: 114%

Q: And the viability, T/C (second compound 1 µM, first compound 0.0949 µM)?
A: 118%

Q: What about the viability, T/C (second compound 1 µM, first compound 0.3 µM) of the same compound?
A: 37.1%

Q: And the viability, T/C (second compound 1 µM, first compound 0.949 µM)?
A: 30.3%

Q: And the viability, T/C (second compound 1 µM, first compound 3 µM)?
A: 25.3%

Q: What about the viability, T/C (second compound 3.16 µM, first compound 0.00949 µM) of the same compound?
A: 83.8%

Q: What about the viability, T/C (second compound 3.16 µM, first compound 0.03 µM) of the same compound?
A: 95.4%

Q: And the viability, T/C (second compound 3.16 µM, first compound 0.0949 µM)?
A: 106%

Q: And the viability, T/C (second compound 3.16 µM, first compound 0.3 µM)?
A: 22.2%

Q: What about the viability, T/C (second compound 3.16 µM, first compound 0.949 µM) of the same compound?
A: 32.2%

Q: And the viability, T/C (second compound 3.16 µM, first compound 3 µM)?
A: 23.9%

Q: What about the viability, T/C (second compound 10 µM, first compound 0.00949 µM) of the same compound?
A: 11.4%

Q: And the viability, T/C (second compound 10 µM, first compound 0.03 µM)?
A: 7.81%

Q: And the viability, T/C (second compound 10 µM, first compound 0.0949 µM)?
A: 6.35%

Q: What about the viability, T/C (second compound 10 µM, first compound 0.3 µM) of the same compound?
A: 7.34%

Q: And the viability, T/C (second compound 10 µM, first compound 0.949 µM)?
A: 7.72%

Q: And the viability, T/C (second compound 10 µM, first compound 3 µM)?
A: 8.99%
